Test results as given in patent publication US20230301957A1, “PO[…] ACID ESTER COMPOSITION AND APPLICATION THEREOF” (SINGAO (XUZHOU) BIOTECH CO., LTD, priority 2020, published 2023).

Test system: influenza virus H1N1
Assay: Hemagglutination test of supernatants of influenza-infected A549 cells
Type: cell-based, influenza virus H1N1 (A549 cells)
Conditions: for hemagglutination titer, average values: average of the two inoculation treatments (Protocol 1 and 2); for inhibitory effect on the influenza virus (in words): from average hemagglutination titers, high titer indicates high virus content
Protocol: A total of four samples were prepared in this experiment: • (1) a lauric acid sample: 3.5 mg of lauric acid was dissolved in 0.5 mL of dimethyl sulfoxide, and then diluted with 9.5 mL of cell culture medium to a final concentration of 0.35 mg/mL and a pH value of the sample was 10.1; • (2) an α-monolaurin sample: 4.8 mg of α-monolaurin was dissolved in 0.5 mL of dimethyl sulfoxide, and then diluted with 9.5 mL of cell culture medium to a final concentration of 0.48 mg/mL and a pH value of the sample was 10.3; • (3) a triglycerol monolaurin sample: 7.5 mg of triglycerol monolaurin was diluted with 10 mL of cell culture medium to a final concentration of 0.75 mg/mL and a pH value of the sample was 7.6; and • (4) a triglycerol monolaurin acidic emulsion sample: 50 mg of triglycerol monolaurin acidic emulsion sample was diluted with 10 mL of cell culture medium to a final concentration of 5 mg/mL and a pH value of the sample was 7.5.
According to equivalent lauric acid concentration conversion, lauric acid concentrations in the samples (2) to (4) were all 0.35 mg/mL, which was equal to that in the sample (1).
The A549 cells were cultured in a 24-well plate, after growing to a monolayer, the cells were treated according to the following two protocols: • I. The cell culture medium was removed, the virus was added, the cells were cultured in an incubator with 5% CO2 at 37° C. for 1 h, the virus solution was removed, each prepared sample was added, 12 parallel test wells were set for each group, and the cells were cultured in the incubator with 5% CO2 at 37° C. for 1 h. After the culture, liquids in the cell culture wells were removed, the cells were washed with PBS, added with a cell maintenance medium, and cultured in the incubator with 5% CO2 at 37° C. for 24 h. Meanwhile, a virus positive control group (a cell culture medium mixed with influenza virus 24HAU was added) was set. • II. The cell culture medium was removed, each prepared sample and the virus were added, 12 parallel test wells were set for each group, and the cells were cultured in an incubator with 5% CO2 at 37° C. for 1 h. After the culture, liquids in the cell culture wells were removed, the cells were washed with PBS, added with a cell maintenance medium, and cultured in the incubator with 5% CO2 at 37° C. for 24 h. Meanwhile, a virus positive control group (a cell culture medium mixed with influenza virus 24HAU was added) was set.
Cell culture supernatants respectively obtained by the above 2 treatment methods were used for hemagglutination test, each culture plate was frozen and thawed repeatedly 3 times, a cell solution was collected for extraction of RNA, which was used for qRT-PCR detection of nucleoprotein (NP).

Compound	hemagglutination titer, average values	inhibitory effect on the influenza virus (in words)
CCCCCCCCCCCC(=O)O [(1), lauric acid]	4.75	weaker compared to the sample (4)
CCCCCCCCCCCC(=O)OCC(O)CO (stereo not drawn) [(2), α-monolaurin]	2.25	the strongest
triglycerol monolaurin [(3)]	4.25	weaker compared to the sample (4)
